Results: patent publication US11079373B2, “Biomarker detection methods and systems and kits for practicing same” (The Board of Trustees of the Leland Stanford Junior …, priority 2015, dated 2021)

Experiments:
Type in all cases: cell-based, human
C.T.L. cells = experiment: Two-color IFNγ/IL-2 detection by FLOWSPOT; conditions: PHA at various concentrations, 16 h
Method: (§1) One hundred thousand peripheral blood mononuclear cells (0.1×10^6 PBMC) or purified lymphocytes were mixed with 7,000 capture microspheres and distributed into each assay well of a 96-well U bottom plate. The plate was centrifuged at 1,500×g for 5 min and the supernatant was removed. The pellet of cells and capture beads were resuspended in 200 μL culture medium with or without testing reagent(s) or stimulus(i), then the plate was incubated in a humidified 37° C., 5% CO2 incubator for 10 min to 7 days (usually 2 to 16 h). After incubation, the cells were lysed in NP-40 lysis buffer (10 mM Tris-HCl, pH 7.4, 10 mM NaCl, 3 mM MgCl2, 0.5% NP-40). The capture beads were washed twice with 3% HBSA (3% BSA in HBSS) and incubated with 50 μL PE-labeled anti-Bio-marker for 60 min at room temperature. After two washes of 3% HBSA, the beads were acquired and analyzed on a BD FACSCanto II flow cytometer. The number of positive spots was calculated based on the following formulas: Percent positive spots (%)=Number of positive particles acquired/Total number of particles acquired×100 Total number of positive spots=Percent positive spots (%)×7,000 (where 7,000=total number of particles/test)
One hundred thousand C.T.L. cells were co-cultured with a mix of IFNγ and IL-2 capture microparticles (7,000 each with different fluorescent ID codes) for 16 h in the presence of PHA at various concentrations.

[1] = tested on: peripheral blood mononuclear cells (PBMC); experiment: Cytometric Bead Array (CBA) IFNγ secretion detection in culture media of PHA-treated PBMC; conditions: 16 h, culture medium
Method: One hundred thousand peripheral blood mononuclear cells (0.1×10^6 PBMC) in 100 μL of 10% FBS RPMI 1640 containing varying concentrations of PHA were seeded in each well in a 96 well plate and incubated in a humidified 37° C., 5% CO2 incubator for 16 h. The plate was centrifuged at 2,500 g for 3 min and 50 μL culture medium of each well was carefully transferred into each corresponding test well in a new 96 well plate. After adding 50 μL INFγ capture beads (BD Biosciences; Cat. 558269) into each well, the plate was incubated at room temperature (RT) for 60 min with constant shaking on a plate shaker. After adding 50 μL INFγ PE-detection reagents (BD Biosciences; Cat. 51-9004031), the plate was continually incubated at RT for additional 2 h. The beads were then washed three times with 200 μL wash buffer (0.05% Tween-20 in PBS) and acquired on a BD FACSCanto II flow cytometer. The concentrations of INFγ in the culture media from each well were extrapolated from the standard curve generated from a series of known INFγ standards in the same batch of CBA assay.

[2] = tested on: peripheral blood mononuclear cells (PBMC); experiment: FlowSpot IFNγ secretion in situ detection, PBMC co-cultured with IFNγ capture microparticles in presence of PHA; conditions: 16 h; for FLOWSPOT SPOTS (n) (IFNγ): percent positive × 7,000
Method: as §1
In parallel, 0.1×10^6 PBMC cells from the same donor were co-cultured with 7,000 IFNγ capture microparticles in a humidified 37° C., 5% CO2 incubator for 16 h in the presence of PHA at various concentrations. After incubation, the cells were lysed in NP-40 lysis buffer (10 mM Tris-HCl, pH 7.4, 10 mM NaCl, 3 mM MgCl2, 0.5% NP-40). The capture beads were washed twice with 3% HBSA (3% BSA in HBSS) and incubated with 50 μL PE-labeled anti-IFNγ for 60 min at room temperature. After an additional two washes of 3% HBSA, the beads were acquired and analyzed on a BD FACSCanto II flow cytometer.

PBMC cells = experiment: Three-color IFNγ/IL-2/GrB detection by […]; conditions: PHA 20 ug/mL, 16 h

Substance: phytohaemagglutinin [PHA]
- IFNγ response to PHA (C.T.L. cells): dose-dependent responses
- IL-2 response to PHA (C.T.L. cells): dose-dependent responses
- CBA IFNγ ([1]; PHA 0.5 μg/mL, from standard curve): 17 pg/mL
- CBA IFNγ ([1]; PHA 1 μg/mL): 36 pg/mL
- CBA IFNγ ([1]; PHA 2.5 μg/mL): 76 pg/mL
- CBA IFNγ ([1]; PHA 5 μg/mL): 174 pg/mL
- CBA IFNγ ([1]; PHA 10 μg/mL): 281 pg/mL
- CBA IFNγ ([1]; PHA 15 μg/mL): 344 pg/mL
- CBA IFNγ ([1]; PHA 20 μg/mL): 312 pg/mL
- FLOWSPOT MFI (IFNγ) ([2]; PHA 0.5 μg/mL): 166
- FLOWSPOT % Positive Spot (IFNγ) ([2]; PHA 0.5 μg/mL, 0.1×10^6 PBMC, 7,000 microparticles): 24%
- FLOWSPOT SPOTS (n) (IFNγ) ([2]; PHA 0.5 μg/mL): 1680 n
- FLOWSPOT % Positive Spot (IFNγ) ([2]; PHA 1 μg/mL): 35%
- FLOWSPOT MFI (IFNγ) ([2]; PHA 1 μg/mL): 659
- FLOWSPOT SPOTS (n) (IFNγ) ([2]; PHA 1 μg/mL): 2450 n
- FLOWSPOT % Positive Spot (IFNγ) ([2]; PHA 2.5 μg/mL): 43%
- FLOWSPOT MFI (IFNγ) ([2]; PHA 2.5 μg/mL): 4050
- FLOWSPOT SPOTS (n) (IFNγ) ([2]; PHA 2.5 μg/mL): 3010 n
- FLOWSPOT % Positive Spot (IFNγ) ([2]; PHA 5 μg/mL): 45%
- FLOWSPOT MFI (IFNγ) ([2]; PHA 5 μg/mL): 9541
- FLOWSPOT SPOTS (n) (IFNγ) ([2]; PHA 5 μg/mL): 3150 n
- FLOWSPOT % Positive Spot (IFNγ) ([2]; PHA 10 μg/mL): 56%
- FLOWSPOT MFI (IFNγ) ([2]; PHA 10 μg/mL): 19594
- FLOWSPOT SPOTS (n) (IFNγ) ([2]; PHA 10 μg/mL): 3920 n
- FLOWSPOT % Positive Spot (IFNγ) ([2]; PHA 15 μg/mL): 57%
- FLOWSPOT MFI (IFNγ) ([2]; PHA 15 μg/mL): 21680
- FLOWSPOT SPOTS (n) (IFNγ) ([2]; PHA 15 μg/mL): 3990 n
- FLOWSPOT % Positive Spot (IFNγ) ([2]; PHA 20 μg/mL): 55%
- FLOWSPOT MFI (IFNγ) ([2]; PHA 20 μg/mL): 22241
- FLOWSPOT SPOTS (n) (IFNγ) ([2]; PHA 20 μg/mL): 3850 n
- median channel value (MCV), intensity of IFNγ secretion (PBMC cells): 653
- median channel value (MCV), intensity of IL-2 secretion (PBMC cells): 407
- number of positive spots for GrB (PBMC cells): 630 spots
- number of positive spots for IFNγ (PBMC cells): 5,320 spots
- number of positive spots for IL-2 (PBMC cells): 4,340 spots
